pIC50: −log10 of the molar value.
Biological target: T1, Malonyl-CoA decarboxylase, mitochondrial (Homo sapiens, UniProt O95822)
T1 sequence (O95822 whole entry): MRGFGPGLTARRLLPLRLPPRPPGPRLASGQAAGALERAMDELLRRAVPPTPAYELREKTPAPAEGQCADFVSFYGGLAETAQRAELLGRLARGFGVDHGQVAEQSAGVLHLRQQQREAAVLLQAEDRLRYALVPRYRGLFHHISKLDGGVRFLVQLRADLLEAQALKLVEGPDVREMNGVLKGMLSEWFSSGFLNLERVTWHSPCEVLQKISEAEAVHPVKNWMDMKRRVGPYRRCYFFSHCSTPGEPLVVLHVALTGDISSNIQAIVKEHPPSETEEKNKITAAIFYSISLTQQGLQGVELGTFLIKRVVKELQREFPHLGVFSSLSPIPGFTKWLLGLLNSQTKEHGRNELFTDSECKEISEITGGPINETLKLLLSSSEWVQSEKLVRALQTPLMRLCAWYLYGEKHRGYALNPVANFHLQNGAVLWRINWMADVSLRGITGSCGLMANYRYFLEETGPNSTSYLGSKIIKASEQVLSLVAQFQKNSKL

CC(C)C(=O)N(CC1CCCO1)c1ncc(C(O)(C(F)(F)F)C(F)(F)F)s1 (stereo unspecified)
pIC50: 5.80
